Laboratory results taken from ChEMBL document CHEMBL1148051, “Antibiotic activity and absolute configuation of 8S-heptadeca-2(Z),9(Z)-diene-4,6-diyne-1,8-diol from Bupleurum salicifolium” (1994).
In brackets after ≈: the same amount, converted by molar mass. Activity calls are given as the source filed them. No cut-off for these calls is given here.

What was measured:
Staphylococcus aureus = test: Antibacterial activity against Staphylococcus aureus ATCC 6538 by rotary shaker method; type: functional
Candida albicans = test: Antifungal activity against Candida albicans UBC1; type: functional, organism-based
Pseudomonas aeruginosa = test: Antibacterial activity against Pseudomonas aeruginosa AK 958; type: functional, organism-based
Escherichia coli = test: Antibacterial activity against Escherichia coli CECT 99; type: functional, organism-based
Salmonella = test: Antibacterial activity against Salmonella sp. CECT 456; type: functional, organism-based
Bacillus subtilis = test: Antibacterial activity against Bacillus subtilis CECT 39 by rotary shaker method; type: functional

CCCCCCC/C=C\[C@H](O)C#CC#C/C=C\CO
MIC (Staphylococcus aureus): 10 µg/mL (≈ 38.4 µM) | Activity (Candida albicans): inactive | Activity (Pseudomonas aeruginosa): inactive | Activity (Escherichia coli): inactive | Activity (Salmonella): inactive | MIC (Bacillus subtilis): 10.5 µg/mL (≈ 40.3 µM)
